Square brackets hold non-standard residues; d marks the D form. Ends that are not written are not given here. Peptide text beside a SMILES is read from it. Cha = N[C@@H](CC1CCCCC1)C(=O)O

Data set [1] deals with T1, human 20S proteasome (h20S).
T1 construct: purchased Proteasome Center
Put plainly: h20S stimulation, hydrolysis of suc-LLVY-amc (chymotryptic-like activity). Format: biochemical.
Procedure: Human 20S (h20S) (final concentration of 4 nM) was incubated in the presence or absence of activators (peptides, 0.2–600 μM; MBP 0.2–400 μM; PA26, 0.04–3500 nM) at ambient temperature for 5 min. Substrate (suc-LLVY-amc, 10 μM; boc-LRR-amc, 20 μM; or FAM-LFP, 100 nM) was added immediately before reading. Fluorescence intensity of suc-LLVY-amc and boc-LRR-amc (excitation, 355 nm; emission, 440 nm; cutoff 435 nm) or FAM-LFP (excitation, 490 nm; emission, 520 nm; cutoff, 515 nm) were monitored at 30 to 60 s intervals for 30 min at 25 °C using a Spectramax M5 microplate reader (Molecular Devices; SoftMax Pro 6.5.1). The hydrolysis rate was calculated from the slope of the curve between 100 and 500 s (500 and 1000 s for boc-LRR-amc) in arbitrary units (RFU per s).
Data were processed and fit in GraphPad Prism 8.1.2. The baseline hydrolysis was normalized to the total mean activity for the lowest concentration of every activator assayed in a given plate and the maximal hydrolysis was normalized as reported. The normalized activity was plotted relative to log10(activator). Data was fit to the model for log(agonist) versus response (variable slope). In Eq. (1), X = log[activator, μM] except for PA26-based activators, which are in nanomolar.1 Y=Bottom+(Top−Bottom)/1+10^((logEC50−X)×Hillslope)

Data set [2] in a line: Visual inspection of 10 mM DMSO stocks (solubility). The data set is classed as physicochemical. Conditions: 10 mM in DMSO (Suppl Fig 1e).

`CC(C)C[C@H](NC(=O)[C@@H](N)CC(N)=O)C(=O)N[C@@H](CO)C(=O)N[C@@H](Cc1ccc(O)cc1)C(=O)N[C@@H](CC1CCCCC1)C(=O)N[C@H](C(=O)O)[C@@H](C)O` [Opt5^Y4] (H-NLSY[Cha]T-OH; N-terminus and C-terminus assumed): the “improvement of potency relative to Opt5^YY” value in data set [1] (ratio of EC50) is listed as ~ 2 fold. In data set [1] (suc-LLVY-amc turnover), the “stimulation of h20S, result in words” value is “completely inactivated”.

Consider ANLQYFA [hRpt5-YP2F], for which the “solubility of DMSO stock, visual” value in data set [2] is listed as “insoluble”.

These data come from publication PMC8907193, “The YΦ motif defines the structure-activity relationships of human 20S proteasome activators” (Nature Communications, 2022).
